Data from US20250281424A1 (New York Blood Center, Inc, priority 2020, published 2025).

Target: T1, human PF4 (Homo sapiens, UniProt P02776)
T1 construct: PF4 is a 70 amino acid, lysine-rich 7.8 kDa platelet-specific protein; made in house; host or cells: Escherichia coli BL21DE3 pLysS (pT7-7) and/or Drosophila S2 cells
T1 sequence (P02776 32-101): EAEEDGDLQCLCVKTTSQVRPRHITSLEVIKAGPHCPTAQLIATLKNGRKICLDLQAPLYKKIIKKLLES
Assay: Inhibition of PF4 tetramer formation (BS3 cross-linking, SDS-PAGE)
Format: biochemical
Settings: for inhibition at 1 µM: 1 μM inhibitor; for inhibition at 1 µM / inhibition at 3 µM / inhibition at 10 µM / inhibition at 5 µM: read-out: % inhibition of PF4 tetramer formation at single concentration of inhibitor; for inhibition at 3 µM: 3 μM inhibitor (column A); for IC50: read-out: IC50 of PF4 tetramer formation inhibition; for inhibition at 10 µM: 10 μM inhibitor (column A); for inhibition at 5 µM: 5 μM inhibitor
Summary of the method: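 Recombinant human wild-type PF4 (E. coli-expressed, heparin-purified), 10 μg/ml in PBS, incubated with compound 15 min at 37° C or 60 min at room temperature, then cross-linked with 0.2 mM BS3 for 30 min at room temperature. Reducing 12% SDS-PAGE; bands quantified as % tetramer, trimer, dimer, monomer versus compound-free control.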

SMILES | inhibition at 1 µM | inhibition at 3 µM | IC50 | inhibition at 10 µM | inhibition at 5 µM
COCCOCCNCC(=O)C1C(=O)c2ccc(S(=O)(=O)c3ccc4c(c3)C(=O)C(C(=O)CNCCOCCOC)C4=O)cc2C1=O (centres unmarked) [Example 397, 2-(2-{[2-(2-methoxyethoxy)ethyl]amino}acetyl)-5-{[2-(2-{[2-(2-methoxyethoxy)ethyl]amino}acetyl)-1,3-dioxo-2,3-dihydro-1H-inden-5-yl]sulfonyl}-2,3-dihydro-1H-indene-1,3-dione] | 2% | 9% |  |  | 
CC(C)OCC(=O)C1C(=O)c2ccc(S(=O)(=O)c3ccc4c(c3)C(=O)C(C(=O)COC(C)C)C4=O)cc2C1=O (centres unmarked) [Example 379, 5-({1,3-dioxo-2-[2-(propan-2-yloxy)acetyl]-2,3-dihydro-1H-inden-5-yl}sulfonyl)-2-[2-(propan-2-yloxy)acetyl]-2,3-dihydro-1H-indene-1,3-dione] | 43% | 68% | 0.66 µM |  | 
CSCCCC(=O)C1C(=O)c2ccc(Oc3ccc4c(c3)C(=O)C(C(=O)CCCSC)C4=O)cc2C1=O (centres unmarked) [Example 283, 2-[4-(methylsulfanyl)butanoyl]-5-({2-[4-(methylsulfanyl)butanoyl]-1,3-dioxo-2,3-dihydro-1H-inden-5-yl}oxy)-2,3-dihydro-1H-indene-1,3-dione] |  |  | 10 µM | 86% | 
CC(C)(C)OC(=O)N[C@@H](Cc1ccccc1)C(=O)C1C(=O)c2ccc(S(=O)(=O)c3ccc4c(c3)C(=O)C(C(=O)[C@H](Cc3ccccc3)NC(=O)OC(C)(C)C)C4=O)cc2C1=O (stereo partly drawn) [Example 158, tert-butyl N-[(2S)-1-[5-({2-[(2S)-2-{[(tert-butoxy)carbonyl]amino}-3-phenylpropanoyl]-1,3-dioxo-2,3-dihydro-1H-inden-5-yl}sulfonyl)-1,3-dioxo-2,3-dihydro-1H-inden-2-yl]-1-oxo-3-phenylpropan-2-yl]carbamate] |  |  | 1.4 µM | 100% | 100%
CC(C)(C)OC(=O)N1CCCC[C@H]1C(=O)C1C(=O)c2ccc(-c3ccc4c(c3)C(=O)C(C(=O)[C@@H]3CCCCN3C(=O)OC(C)(C)C)C4=O)cc2C1=O (stereo partly drawn) [Example 212, tert-butyl (2S)-2-{2′-[(2S)-1-[(tert-butoxy)carbonyl]piperidine-2-carbonyl]-1,1′,3,3′-tetraoxo-1H,1′H,2H,2′H,3H,3′H-[5,5′-biindene]-2-carbonyl}piperidine-1-carboxylate] |  |  | 5.5 µM | 88% | 91%
C/C(O)=C1\C(=O)c2ccc(C#Cc3ccc4c(c3)C(=O)/C(=C(/C)O)C4=O)cc2C1=O [Example 196] |  |  | 5.3 µM | 96% | 88%
COc1ccccc1NC(=O)C1C(=O)c2ccc(S(=O)(=O)c3ccc4c(c3)C(=O)C(C(=O)Nc3ccccc3OC)C4=O)cc2C1=O (centres unmarked) [Example 69, 5,5′-sulfonylbis(n-(2-methoxyphenyl)-1,3-dioxo-2,3-dihydro-1h-indene-2-carboxamide)] |  |  | 1.05 µM | 85% | 60%
CC(=O)NCC(=O)C1C(=O)c2ccc(S(=O)(=O)c3ccc4c(c3)C(=O)C(C(=O)CNC(C)=O)C4=O)cc2C1=O (centres unmarked) [Example 175, N-[2-(5-{[2-(2-acetamidoacetyl)-1,3-dioxo-2,3-dihydro-1H-inden-5-yl]sulfonyl}-1,3-dioxo-2,3-dihydro-1H-inden-2-yl)-2-oxoethyl]acetamide] |  |  | 1.1 µM | 97% | 90%
COCCC(=O)C1C(=O)c2ccc(S(=O)(=O)c3ccc4c(c3)C(=O)C(C(=O)CCOC)C4=O)cc2C1=O (centres unmarked) [Example 177, 2-(3-methoxypropanoyl)-5-{[2-(3-methoxypropanoyl)-1,3-dioxo-2,3-dihydro-1H-inden-5-yl]sulfonyl}-2,3-dihydro-1H-indene-1,3-dione] |  |  |  | 17% | 0%
COCCOCCNC(=O)C1C(=O)c2ccc(C(=O)c3ccc4c(c3)C(=O)C(C(=O)NCCOCCOC)C4=O)cc2C1=O (centres unmarked) [Example 66, 5,5′-carbonylbis(n-(2-(2-methoxyethoxy)ethyl)-1,3-dioxo-2,3-dihydro-1h-indene-2-carboxamide)] |  |  |  | 86% | 48%
O=C(Cn1cccn1)C1C(=O)c2ccc(S(=O)(=O)c3ccc4c(c3)C(=O)C(C(=O)Cn3cccn3)C4=O)cc2C1=O (centres unmarked) [Example 139, 5-({1,3-dioxo-2-[2-(1H-pyrazol-1-yl)acetyl]-2,3-dihydro-1H-inden-5-yl}sulfonyl)-2-[2-(1H-pyrazol-1-yl)acetyl]-2,3-dihydro-1H-indene-1,3-dione] |  |  | 7 µM | 97% | 87%
O=C(NC1CCC1)C1C(=O)c2ccc(S(=O)(=O)c3ccc4c(c3)C(=O)C(C(=O)NC3CCC3)C4=O)cc2C1=O (centres unmarked) [Example 292, N-cyclobutyl-5-{[2-(cyclobutylcarbamoyl)-1,3-dioxo-2,3-dihydro-1H-inden-5-yl]sulfonyl}-1,3-dioxo-2,3-dihydro-1H-indene-2-carboxamide] | 47% | 100% | 1.26 µM |  | 
O=C1CC(=O)c2cc(S(=O)(=O)c3ccc4c(c3)C(=O)CC4=O)ccc21 [Example 12, 5,5′-sulfonylbis(1h-indene-1,3(2h)-dione)] |  |  | 2.32 µM |  | 
CC(C)(C)OC(=O)N[C@@H](Cc1ccccc1)C(=O)C1C(=O)c2ccc(C(=O)c3ccc4c(c3)C(=O)C(C(=O)[C@H](Cc3ccccc3)NC(=O)OC(C)(C)C)C4=O)cc2C1=O (stereo partly drawn) [Example 157, tert-butyl N-[(2S)-1-(5-{2-[(2S)-2-{[(tert-butoxy)carbonyl]amino}-3-phenylpropanoyl]-1,3-dioxo-2,3-dihydro-1H-indene-5-carbonyl}-1,3-dioxo-2,3-dihydro-1H-inden-2-yl)-1-oxo-3-phenylpropan-2-yl]carbamate] |  |  | 1.2 µM | 100% | 100%
O=C1c2ccc(S(=O)(=O)c3ccc4c(c3)C(=O)C(C(=O)C3CCN(C(=O)OCc5ccccc5)C3)C4=O)cc2C(=O)C1C(=O)C1CCN(C(=O)OCc2ccccc2)C1 (centres unmarked) [Example 160, benzyl 3-{5-[(2-{1-[(benzyloxy)carbonyl]pyrrolidine-3-carbonyl}-1,3-dioxo-2,3-dihydro-1H-inden-5-yl)sulfonyl]-1,3-dioxo-2,3-dihydro-1H-indene-2-carbonyl}pyrrolidine-1-carboxylate] |  |  | 5.1 µM | 88% | 75%
CC(C)(C)OC(=O)NCC(=O)C1C(=O)c2ccc(S(=O)(=O)c3ccc4c(c3)C(=O)C(C(=O)CNC(=O)OC(C)(C)C)C4=O)cc2C1=O (centres unmarked) [Example 174, tert-butyl N-[2-(5-{[2-(2-{[(tert-butoxy)carbonyl]amino}acetyl)-1,3-dioxo-2,3-dihydro-1H-inden-5-yl]sulfonyl}-1,3-dioxo-2,3-dihydro-1H-inden-2-yl)-2-oxoethyl]carbamate] |  |  | 11 µM | 94% | 84%
O=C(O)CCCC(=O)C1C(=O)c2ccc(-c3ccc4c(c3)C(=O)C(C(=O)CCCC(=O)O)C4=O)cc2C1=O (centres unmarked) [Example 227, 5-[2′-(4-carboxybutanoyl)-1,1′,3,3′-tetraoxo-1H,1′H,2H, 2′H,3H,3′H-[5,5′-biinden]-2-yi]-5-oxopentanoic acid] |  |  | 1.8 µM |  | 
CSCCC(=O)C1C(=O)c2ccc(C(=O)c3ccc4c(c3)C(=O)C(C(=O)CCSC)C4=O)cc2C1=O (centres unmarked) [Example 277, 2-[3-(methylsulfanyl)propanoyl]-5-{2-[3-(methylsulfanyl)propanoyl]-1,3-dioxo-2,3-dihydro-1H-indene-5-carbonyl}-2,3-dihydro-1H-indene-1,3-dione] | 38% | 41% | 3 µM |  | 
CC(C)(C)CC(=O)NCC(=O)C1C(=O)c2ccc(C(=O)c3ccc4c(c3)C(=O)C(C(=O)CNC(=O)CC(C)(C)C)C4=O)cc2C1=O (centres unmarked) [Example 185, N-[2-(5-{2-[2-(3,3-dimethylbutanamido)acetyl]-1,3-dioxo-2,3-dihydro-1H-indene-5-carbonyl}-1,3-dioxo-2,3-dihydro-1H-inden-2-yl)-2-oxoethyl]-3,3-dimethylbutanamide] |  |  | 4.4 µM | 94% | 89%
O=C1c2ccc(Oc3ccc4c(c3)C(=O)C(C(=O)C3CCCCC3)C4=O)cc2C(=O)C1C(=O)C1CCCCC1 (centres unmarked) [Example 286, 2-cyclohexanecarbonyl-5-[(2-cyclohexanecarbonyl-1,3-dioxo-2,3-dihydro-1H-inden-5-yl)oxy]-2,3-dihydro-1H-indene-1,3-dione] | 37% | 47% | 3 µM |  | 
COC(=O)CCC(=O)C1C(=O)c2ccc(C(=O)c3ccc4c(c3)C(=O)C(C(=O)CCC(=O)OC)C4=O)cc2C1=O (centres unmarked) [Example 230, methyl 4-{5-[2-(4-methoxy-4-oxobutanoyl)-1,3-dioxo-2,3-dihydro-1H-indene-5-carbonyl]-1,3-dioxo-2,3-dihydro-1H-inden-2-yl}-4-oxobutanoate] | 1% | 24% |  |  | 
O=C(c1ccc2c(c1)C(=O)C(C(=O)C1CCCS1(=O)=O)C2=O)c1ccc2c(c1)C(=O)C(C(=O)C1CCCS1(=O)=O)C2=O (centres unmarked) [Example 371, 2-{5-[2-(1,1-dioxo-1λ^6-thiolane-2-carbonyl)-1,3-dioxo-2,3-dihydro-1H-indene-5-carbonyl]-1,3-dioxo-2,3-dihydro-1H-indene-2-carbonyl}-1λ^6-thiolane-1,1-dione] | 7% | 11% |  |  | 
